Assay results taken from US9296776B2, “Substituted nucleoside derivatives with antiviral and antimicrobial properties” (Eastern Virginia Medical School, priority 2007, dated 2016).
Converted amounts (≈) assume the structure as drawn. Like-named read-outs stand apart in the source and are kept apart here.

Columns and labels:
[1] = tested on: HIV-1 IIIB (cell-free virus); assay: microbe, parasite or virus in culture; format: cell-based; settings: for IC50: read-out: IC50 Cell-Free Virus IIIB
[2] = tested on: CCRF-CEM cell line; format: cell-based, human
Protocol: Cells were incubated with 10 μM of DMSO, FAM, KPH-1.5 and KPH-1.6 for 1 h and then imaged using a light microscope (ZEISS Axioplan 2) equipped with transmitted light microscopy with a differential-interference contrast method and an Achroplan 40× objective. […] The results further confirm the higher cellular uptake of KPH-1.6, a fatty acyl derivative of FLT, in comparison to KPH-1.5 and FAM alone. Similar results were also observed with fluorescein-substituted derivative of 3TC.

[3] = tested on: HIV-1 BaL (cell-free virus); assay: Single-round infection assay, cell-free virus BaL; format: cell-based; settings: for IC50: read-out: IC50 Cell-Free Virus BaL
[4] = tested on: Cell-associated HIV-1, SupT1 (IIIB); assay: Single-round infection assay, cell-associated virus SupT1 (IIIB); format: cell-based; settings: for IC50: Human immunodeficiency virus 1, IIIB
[5] = Cytotoxicity (Tables 4, 6, 8)
[6] = tested on: H. ducreyi Strain HMC56; assay: Antibacterial activity (MIC), strain HMC56; format: cell-based, Haemophilus ducreyi
[7] = tested on: H. ducreyi Strain HMC 62; assay: Antibacterial activity (MIC), strain HMC 62; format: cell-based, Haemophilus ducreyi
[8] = tested on: H. ducreyi Strain HMC 64; assay: Antibacterial activity (MIC), strain HMC 64; format: cell-based, Haemophilus ducreyi
[9] = tested on: HIV-1 clinical isolate R5 = 92TH014; assay: Antiviral activity against HIV-1 clinical isolate R5, RT endpoint; format: cell-based; settings: Table 2, 6 h incubation then 6 days
[10] = tested on: Multidrug resistant virus 7324-1; assay: Antiviral activity against multidrug resistant HIV, RT endpoint; format: cell-based, HIV-1; settings: Table 2; MDR = 7324-1; RT endpoint; 6 h incubation then 6 days
[11] = in vitro
[12] = Table 1, 2 h incubation, wash, 48 h culture
[13] = Human immunodeficiency virus 1, IIIB, Table 1, 2 h incubation, wash, 48 h culture
[14] = Human immunodeficiency virus 1, BAL, Table 1, 2 h incubation, wash, 48 h culture
[15] = SUP-T1, Table 1, 2 h incubation, wash, 48 h culture, read-out: IC50 Cell-Associated Virus SupT1 (IIIB)
[16] = Table 8, 2 h incubation, wash, 48 h culture
[17] = Table 8, 2 h incubation, wash, 48 h culture, read-out: EC50 Cell-free HIV-1 (IIIB)

3′-fluoro-2′,3′-dideoxy-5′-O-(12-(N-5(6)carboxylfluoresceinaminododecanoyl)thymidine
IC50 Cell-Free Virus IIIB [1, 12]: 4.3 µg/mL | cell fluorescence by microscopy [2]: showed fluorescence

5(6)-carboxyfluorescein [FAM, reference compound]
cell fluorescence by microscopy [2]: no significant fluorescence

Nc1ccn([C@@H]2CS[C@H](CO)O2)c(=O)n1 [2′,3′-dideoxy-3′-thiacytidine, reference compound]
IC50 ([1]; Human immunodeficiency virus 1, IIIB): 7.5 µg/mL (≈ 32.7 µM) | IC50 ([3]; Human immunodeficiency virus 1, BAL): 2.6 µg/mL (≈ 11.3 µM) | IC50 ([4]; SUP-T1, read-out: IC50 Cell-Associated Virus SupT1 (IIIB)): 18.4 µg/mL (≈ 80.3 µM) | CC50 [5]: > 100 µg/mL

CCCCCSCCCCCCCC(=O)OC[C@H]1O[C@@H](n2cc(C)c(=O)[nH]c2=O)C[C@@H]1N=[N+]=[N-] [3′-azido-2′,3′-dideoxy-5′-O-(9-thiatertradecanoyl)thymidine]
IC50 Cell-Free Virus IIIB [1, 12]: 3.7 µg/mL (≈ 7.47 µM) | IC50 Cell-Free Virus BaL [3, 12]: 8.1 ( μg/mL | IC50 Cell-Associated Virus SupT1 (IIIB) [4, 12]: 42.0 µg/mL (≈ 84.7 µM) | MIC (minimum inhibitory concentration) [6]: 250 µg/mL (≈ 504 µM) | MIC (minimum inhibitory concentration) [7]: 250 µg/mL (≈ 504 µM) | MIC (minimum inhibitory concentration) [8]: 750 µg/mL (≈ 1510 µM)

Cc1cn([C@H]2C[C@H](F)[C@@H](COC(=O)CCCCCCCCCCCN=[N+]=[N-])O2)c(=O)[nH]c1=O [3′-fluoro-2′,3′-dideoxy-5′-O-(12-azidododecanoyl)thymidine]
IC50 Cell-Free Virus IIIB [1, 12]: 0.4 µg/mL (≈ 0.856 µM) | IC50 Cell-Free Virus BaL [3, 12]: 0.2 µg/mL (≈ 0.428 µM) | IC50 Cell-Associated Virus SupT1 (IIIB) [4, 12]: 5.9 µg/mL (≈ 12.6 µM) | IC50 [9]: 0.003 µg/mL (≈ 0.00642 µM) | IC50 [10]: 0.003 µg/mL (≈ 0.00642 µM) | MIC (minimum inhibitory concentration) [6]: 500 µg/mL (≈ 1070 µM) | MIC (minimum inhibitory concentration) [7]: 125 µg/mL (≈ 267 µM) | MIC (minimum inhibitory concentration) [8]: 125 µg/mL (≈ 267 µM)

CCSCCCCCCCCCCCC(=O)OC[C@H]1O[C@@H](n2cc(C)c(=O)[nH]c2=O)C[C@@H]1F [3′-fluoro-2′,3′-dideoxy-5′-O-(13-thiapentadecanoyl)thymidine]
IC50 Cell-Free Virus IIIB [1, 12]: 0.5 µg/mL (≈ 1.03 µM) | IC50 Cell-Free Virus BaL [3, 12]: <0.1 µg/mL | IC50 Cell-Associated Virus SupT1 (IIIB) [4, 12]: 1.1 µg/mL (≈ 2.26 µM) | IC50 [9]: 0.002 µg/mL (≈ 0.00411 µM) | IC50 [10]: 0.002 µg/mL (≈ 0.00411 µM) | MIC (minimum inhibitory concentration) [6]: 125 µg/mL (≈ 257 µM) | MIC (minimum inhibitory concentration) [7]: 125 µg/mL (≈ 257 µM) | MIC (minimum inhibitory concentration) [8]: 125 µg/mL (≈ 257 µM)

CCCCCCCCCCCCCC(=O)OC[C@H]1O[C@@H](n2cc(C)c(=O)[nH]c2=O)C[C@@H]1F [3′-fluoro-2′,3′-dideoxy-5′-O-(tetradecanoyl)thymidine]
IC50 Cell-Free Virus IIIB [1, 12]: 0.3 µg/mL (≈ 0.66 µM) | IC50 Cell-Free Virus BaL [3, 12]: 0.5 µg/mL (≈ 1.1 µM) | IC50 Cell-Associated Virus SupT1 (IIIB) [4, 12]: 2.9 µg/mL (≈ 6.38 µM) | IC50 [9]: 0.003 µg/mL (≈ 0.0066 µM) | IC50 [10]: 0.002 µg/mL (≈ 0.0044 µM)

CCSCCCCCCCCCCCC(=O)OC[C@H]1O[C@@H](n2cc(F)c(N)nc2=O)CS1 [5′-O-(13-thiapentadecanoyl)-2′,3′-dideoxy-5-fluoro-3′-thiacytidine]
IC50 [1, 13]: 0.024 µg/mL (≈ 0.049 µM) | IC50 [3, 14]: 0.02 µg/mL (≈ 0.0408 µM) | IC50 [4, 15]: 2.4 µg/mL (≈ 4.9 µM)

CCCCCCCCCCCCCC(=O)OC[C@@H]1C=C[C@H](n2cc(C)c(=O)[nH]c2=O)O1 [5′-O-myristoyl-2′,3′-didehydro-2′,3′-dideoxythymidine]
IC50 Cell-Free Virus IIIB [1, 12]: 34 µg/mL (≈ 78.2 µM) | IC50 Cell-Free Virus BaL [3, 12]: 5.4 µg/mL (≈ 12.4 µM) | IC50 Cell-Associated Virus SupT1 (IIIB) [4, 12]: >100 µg/mL

CCCCCCCCCCCCCC(=O)OC[C@H]1O[C@@H](n2ccc(N)nc2=O)CS1 [5′-O-tetradecanoyl-2′,3′-dideoxy-3′-thiacytidine]
IC50 [1, 13]: 0.3 µg/mL (≈ 0.682 µM) | IC50 [3, 14]: 0.082 µg/mL (≈ 0.187 µM) | IC50 [4, 15]: 27.3 µg/mL (≈ 62.1 µM)

CCCCCCCCCCCCCC(=O)OC[C@H]1O[C@@H](n2cc(F)c(N)nc2=O)CS1 [5′-O-tetradecanoyl-2′,3′-dideoxy-5-fluoro-3′-thiacytidine]
IC50 [1, 13]: 0.056 µg/mL (≈ 0.122 µM) | IC50 [3, 14]: 0.033 µg/mL (≈ 0.0721 µM) | IC50 [4, 15]: 1.7 µg/mL (≈ 3.71 µM)

Cc1cn([C@H]2C=C[C@@H](COC(=O)CCCCCCCCCCCBr)O2)c(=O)[nH]c1=O [12-bromododecanoyl-2′,3′-didehydro-2′,3′-dideoxythymidine]
IC50 Cell-Free Virus IIIB [1, 12]: 7.2 µg/mL (≈ 14.8 µM) | IC50 Cell-Free Virus BaL [3, 12]: 1.1 µg/mL (≈ 2.27 µM) | IC50 Cell-Associated Virus SupT1 (IIIB) [4, 12]: >100 µg/mL

CCCCCCCCCCCCCC(=O)NCCCCC(NC(=O)CCNC(=O)C(CCC(=O)OC[C@H]1O[C@@H](n2cc(C)c(=O)[nH]c2=O)C[C@@H]1F)NC(C)=O)C(=O)O (some centres unmarked) [KPH-91, FLT(Glutamyl)-myrsitoyllysine]
EC50 Cell-free HIV-1 (IIIB) [1, 16]: 8.7 µg/mL (≈ 10.5 µM) | EC50 [1, 17]: 10.5 µM | CC50 [5]: > 100 µg/mL

CCCCCCCCCCCCCC(=O)NCCCC[C@H](NC(=O)CCNC(=O)[C@H](CCC(=O)OC[C@H]1O[C@@H](n2cc(C)c(=O)[nH]c2=O)C[C@@H]1F)NC(=O)CCCCCCCCCCCCC)C(=O)O [KPH-92, FLT(myristoylglutamyl)-mysritoyllysine]
CC50 [5]: > 100 µg/mL

CCCCCCCCCCCCCC(=O)OCC(NC(C)=O)C(=O)NCCC(=O)NC(CCC(=O)OC[C@H]1O[C@@H](n2cc(C)c(=O)[nH]c2=O)C[C@@H]1F)C(=O)NCC(=O)O (some centres unmarked) [KPH-94, Myristoylserine-FLT(glutamyl)glycine]
EC50 Cell-free HIV-1 (IIIB) [1, 16]: 9.3 µg/mL (≈ 11.1 µM) | EC50 [1, 17]: 11.1 µM | CC50 [5]: > 100 µg/mL

CCCCCCCCCCCCCC(=O)OCC(NC(C)=O)C(=O)NCCC(=O)NC(CCC(=O)OC[C@H]1O[C@@H](n2cc(C)c(=O)[nH]c2=O)C[C@@H]1N=[N+]=[N-])C(=O)NCC(=O)O (some centres unmarked) [KPH-95, Myristoylserine-AZT(glutamyl)glycine]
EC50 Cell-free HIV-1 (IIIB) [1, 16]: 54.5 µg/mL (≈ 63.1 µM) | EC50 [1, 17]: 63.1 µM | CC50 [5]: > 100 µg/mL

[N-]=[N+]=NCCCCCCCCCCCC(=O)Nc1ccn(C2CSC(COC(=O)CCCCCCCCCCCN=[N+]=[N-])O2)c(=O)n1 (centres unmarked) [N4, 5′-O-di(12-azidodecanoyl)-2′,3′-dideoxy-3′-thiacytidine]
IC50 Cell-Free Virus IIIB [1, 12]: >100 µg/mL | IC50 Cell-Free Virus BaL [3, 12]: 49.1 µg/mL (≈ 72.6 µM) | IC50 Cell-Associated Virus SupT1 (IIIB) [4, 12]: >100 µg/mL

CCCCCCCCCCCCCC(=O)Nc1ccn([C@H]2CS[C@@H](COC(=O)CCCCCCCCCCCCC)O2)c(=O)n1 [N4, 5′-O-dimyristoyl-2′,3′-dideoxy-3′-thiacytidine]
IC50 [1, 13]: > 100 µg/mL | IC50 [3, 14]: 87.8 µg/mL (≈ 135 µM) | IC50 [4, 15]: > 100 µg/mL

[N-]=[N+]=NCCCCCCCCCCCC(=O)Nc1ccn([C@H]2CS[C@@H](CO)O2)c(=O)n1 [N4-(12-azidodecanoyl)-2′,3′-dideoxy-3′-thiacytidine]
IC50 Cell-Free Virus IIIB [1, 12]: 13.3 µg/mL (≈ 29.4 µM) | IC50 Cell-Free Virus BaL [3, 12]: 1.7 µg/mL (≈ 3.76 µM) | IC50 Cell-Associated Virus SupT1 (IIIB) [4, 12]: 6.6 µg/mL (≈ 14.6 µM)

CCSCCCCCCCCCCCC(=O)Nc1ccn([C@H]2CS[C@@H](CO)O2)c(=O)n1 [N4-(13-thiapentadecanoyl)-2′,3′-dideoxy-3′-thiacytidine]
IC50 [1, 13]: 2.5 µg/mL (≈ 5.3 µM) | IC50 [3, 14]: 0.2 µg/mL (≈ 0.424 µM) | IC50 [4, 15]: > 100 µg/mL

CCCCCCCCCCCCCC(=O)Nc1ccn([C@H]2CS[C@@H](CO)O2)c(=O)n1 [N4-tetradecanoyl-2′,3′-dideoxy-3′-thiacytidine]
IC50 [1, 13]: 4.8 µg/mL (≈ 10.9 µM) | IC50 [3, 14]: 0.3 µg/mL (≈ 0.682 µM) | IC50 [4, 15]: 0.3 µg/mL (≈ 0.682 µM)

Cc1ccc(C(=O)Nc2ccc(S(=O)(=O)O)c3cc(S(=O)(=O)O)cc(S(=O)(=O)O)c23)cc1NC(=O)c1cccc(NC(=O)Nc2cccc(C(=O)Nc3cc(C(=O)Nc4ccc(S(=O)(=O)O)c5cc(S(=O)(=O)O)cc(S(=O)(=O)O)c45)ccc3C)c2)c1 [Suramin, reference compound]
EC50 ([1]; Human immunodeficiency virus 1, IIIB, read-out: EC50 Cell-Free Virus IIIB): 49.1 µg/mL | EC50 ([3]; Human immunodeficiency virus 1, BAL, Table 6): 1 µg/mL (≈ 0.771 µM) | CC50 [11]: > 100 µg/mL

Sodium cellulose sulfate-succinate-AZT (17.2%) [CS-Suc-AZT]
EC50 Cell-Free Virus IIIB ([1]; Table 4): 2.2 µg/mL | EC50 Cell-Free Virus BaL ([3]; Table 4): 9.9 µg/mL | EC50 Cell-Associated Virus SupT1-IIIB ([4]; Table 4): 74.8 µg/mL
